These results are taken from US8193224B2, “Medicinal composition for prevention or treatment of parasitic protozoan infection” (Fujifilm Corporation, priority 2004, dated 2012).

Read-outs that look alike come from different tables or passages of the source.

Holding throughout (type): cell-based
Data set [1] has as its system Plasmodium falciparum K1 strain. Briefly: Chloroquine resistant-Plasmodium falciparum growth inhibition screening test. Particulars: for EC50: chloroquine resistant K1 strain, 3H-hypoxanthine, 48 + 24 hours, read-out: 50% growth inhibition concentration P. falciparum K1; for Selective toxicity: chemotherapy index = EC50 rat L6 cells / EC50 chloroquine resistant P. falciparum. As to the method:
In the present example, protozoa of Plasmodium falciparum K1 strain was used. RPMI-1640 medium sterilized with a filter to which human serum was added to be 5%, was used in the experiment. Malarial parasites were cultured under 3% O2 concentration, 4% Co2 concentration, 93% N2 concentration, and at a temperature of 37° C.
The compounds of the present invention to be used in the present test and the positive target drug (chloroquine) were dissolved in DMSO to make a test solution of a predetermined concentration. Cultured malarial parasite infected-erythrocytes were collected by centrifugation, and diluted with non-infected erythrocyte so that the early infection rate is 0.15%. Hematocrit level at that time was 2.5%. 200 μL of malaria infected solution was added to wells of a 96-well culture plate, and adjusted by adding a test solution containing drug of a predetermined concentration or a drug-free DMSO. Test solutions were taken by duplicates. After culturing for 48 hours at 37° C., 0.5 μCi radioactive tritium (3H)-labeled hypoxanthine was added to each well. After further culturing for 24 hours under the same conditions, it was collected on a glass fiber filter and washed with distilled water. Radiation intensity was measured with a beta plate liquid scintillation counter (Wallac), and malarial parasite infection rates of the test solution added group and of the control group were calculated. Growth inhibition rate was calculated with the following formula based on the malarial parasite infection rate obtained in the above, to obtain a 50% growth inhibition concentration (EC50). Growth inhibition rate (%)={1−(b−a)/(c−a)}×100 a: early infection rate b: infection rate when test solution was added c: infection rate of the control

The nature of data set [2]: Growth inhibition test of rat L6 cells. As to the method:
(§1) Rat derived-L6 cells (rat skeletal myoblast cell) were used. As medium, RPMI1640 medium was supplemented so that L-glutamin (200 mM) is 1%, and fetal bovine serum 10%, and the medium was cultured under CO2 concentration 5%, at 37° C. The compounds of the present invention and the target drugs to be used in the test were dissolved in DMSO, to make a test solution of a predetermined concentration. Pre-culture was conducted and medium containing cells which have entered the logarithmic growth phase was taken to wells of a 96-well culture plate. Then, a test solution containing drug of a predetermined concentration or a drug-free DMSO was added. Test solutions were taken by duplicates. Culture plate was cultured for 72 hours in an incubator, to test the growth inhibition activity. Test was conducted as follows.
(§2) 10 μl of Alamar Blue aqueous solution was added to each well, and the resultant was further cultured for 2 hours. Next, the culture plate was placed on a fluorescent micro-plate reader (Spectramax Gemeni XS; US Molecular Device), radiated at an excited wavelength of 536 nm. Fluorescent intensity was measured at 588 nm, and residual rate of L6 cells of the test solution added group, and that of the control was calculated. Based on the cell residual rate obtained in the above, growth inhibition rate to L6 cells was calculated, to obtain a 50% growth inhibition concentration (EC50). Growth inhibition rate (%)={(C−A)/(B−A)}×100 A: primary cell count B: cell count of control, 3 days after C: cell count of wells added with a sample, 3 days after […]

Data set [3] has as its system Trypanosoma brucei rhodensiense (STIB 900 strain). The experiment in a line: African trypanosome protozoa growth inhibition screening test. The following applies: read-out: 50% growth inhibiting concentration Trypanosoma brucei rhod. How it is done: In the present example, protozoa of Trypanosoma brucei rhodensiense (STIB 900 strain), a trypamastigote living in blood stream, was used. The medium used in the experiment was a MEM medium which was sterilized with a filter and supplemented with 25 mM N-2-hydroxyethylpiperazine-2-ethansulfonic acid […]), 1 g/L glucose, 1% MEM non-essential amino acid, 0.2 mM 2-mercaptoethanol, 2 mM sodium pyruvate, 0.1 mM hypoxanthine, and 15% heat-treated horse serum. The protozoa was cultured in an atmosphere of CO2 concentration 5%, at a temperature of 37° C.
The compounds of the present invention to be used in the present test and the positive target drug (melarsoprol) were dissolved in DMSO to make a test solution of a predetermined concentration. A medium containing 8×10^3 protozoa, and a test solution containing a drug of a predetermined concentration or a drug-free DMSO were added to wells of a 96-well culture plate, and subsequently, medium was added so that the amount in each well becomes 100 μL. Test solutions were taken by duplicates. After culturing the culture plate for 72 hours in an incubator, growth inhibition activity was tested. Test was conducted as follows. 10 μL of Alamar Blue aqueous solution was added to each well, and the resultant was further cultured for 2 hours. Next, the culture plate was placed on a fluorescent micro-plate reader (Spectramax Gemeni XS; US Molecular Device), radiated at an excited wavelength of 536 nm. Fluorescent intensity was measured at 588 nm, to calculate the trypanosome protozoa infected rate of the test solution added-group, and of the control group. From the protozoan infection rate obtained in the above, growth inhibition rate was calculated with the following formula, to obtain a 50% growth inhibition concentration (EC50). Growth inhibition rate (%)={1−(b−a)/(c−a)}×100 a: early infection rate b: infection rate when test solution was added c: infection rate of the control

For data set [4] the test system is unchanged. Described as above. Particulars: chemotherapy index = EC50 rat L6 cells / EC50 African trypanosome protozoa.
Data set [5] deals with Rat derived-L6 cells (rat skeletal myoblast cell). The experiment in a line: Growth inhibition test of rat L6 cells. Particulars: 72 hours. How it is done:
as §1, §2

For data set [6], the system named is Leishmania donovani (MHOM/ET/67/L82 strain). The experiment in a line: Leishmania protozoa growth inhibition screening test. Particulars: MHOM/ET/67/L82 strain amastigote, pH 5.4, 72 hours, Alamar Blue, read-out: 50% growth inhibition concentration Leishmania donovani. How it is done: In the present example, Leishmania donovani (MHOM/ET/67/L82 strain) was used. Protozoa was subcultured in Syrian Golden hamster, from which an amastigote was obtained. In the experiment, SM medium supplemented with 10% heat-treated bovine fetal serum was used, which was adjusted to pH 5.4, and cultured in an atmosphere of 5% CO2 concentration, at 37° C.
The compounds of the present invention to be used in the present test and the positive target drug (miltefosine) were dissolved in DMSO to make a test solution of a predetermined concentration. After adding a medium containing a predetermined number of protozoa to wells of a 96-well culture plate and pre-treating, concentration of the amastigote was measured with CASY cell analysis system (Scharfe, Germany). Then, test solution containing a drug of a predetermined concentration or a drug-free DMSO was added. Test solutions were taken by duplicates. After culturing the culture plate for 72 hours in an incubator, growth inhibition activity was tested. Test was conducted as follows.
10 μL of Alamar Blue aqueous solution was added to each well, and the resultant was further cultured for 2 hours. Next, the culture plate was placed on a fluorescent micro-plate reader (Spectramax Gemeni XS; US Molecular Device), radiated at an excited wavelength of 536 nm. Fluorescent intensity was measured at 588 nm, and infection rate of leishmania protozoa of the test solution added-group and control was calculated, to obtain a 50% growth inhibition concentration (EC50). Growth inhibition rate (%)={1−(b−a)/(c−a)}×100 a: early infection rate b: infection rate when test solution was added c: infection rate of the control

The subject of data set [7] is Trypanosoma cruzi (Tulahuen C2C4 strain). The experiment in a line: American trypanosome protozoa growth inhibition screening test. Particulars: Tulahuen C2C4 strain in rat L6 cells, 96 hours, CPRG/Nonidet, read-out: 50% growth inhibition concentration Trypanosoma cruzi. As to the method:
In the present example, amastigote and trypomastigote infected with rat L6 cells of protozoa of Trypanosoma cruzi (Tulahuen C2C4 strain) were used. As medium used in the test, RPMI 1640 medium containing L6 cells was supplemented so that L-glutamine (200 mM) becomes 1%, fetal bovine serum becomes 10%, which was cultured under CO2 concentration 5%, at 37° C.
The compounds of the present invention to be used in the test and the positive target agent (benznidazole) were dissolved in DMSO to make a test solution of a predetermined concentration. A medium containing 5×10^3 protozoa was added to wells of a 96-well culture plate, and pre-cultured for 48 hours. After replacing the medium, test solution containing drug of a predetermined concentration or a drug-free DMSO was added. Test solutions were taken by duplicates. After culturing the culture plate in an incubator for 96 hours, growth inhibition activity was tested. Test was conducted as follows.
50 μL of CPRG/Nonidet was added to each well, and allowed to rest for 2 to 6 hours. Next, the culture plate was placed on a fluorescent micro-plate reader, and the absorbance was measured at 540 nm. Growth inhibition rate was calculated with the following formula based on the protozoan infection rate which was obtained by calculating trypanosome infection rate of the test solution added group and control group, to obtain a 50% growth inhibition concentration (EC50). Growth inhibition rate (%)={1−(b−a)/(c−a)}×100 a: early infection rate b: infection rate when test solution was added c: infection rate of the control

Setting [8] is: L6 cells (rat skeletal myoblast), Alamar Blue (Table 2), read-out: 50% growth inhibition concentration Cytotoxicity L6.
Setting [9] is: Trypanosoma brucei, STIB900, STIB 900 strain, blood stream form, 72 hours, Alamar Blue.
The mark [10] stands for this setting: Alamar Blue (Table 3), read-out: 50% growth inhibiting concentration Cytotoxicity L6.
Setting [11] is: STIB 900 strain, blood stream form, 72 hours, Alamar Blue.
[12] abbreviates: Alamar Blue (Table 2), read-out: 50% growth inhibition concentration Cytotoxicity L6.

For the compound `CCn1c(=O)/c(=C/C=C2\Sc3ccccc3N2C)s/c1=C\c1cccc[n+]1CCCCC(=O)O` [A-12], the EC50 was determined as 210 nM in data set [1] (Plasmodium falciparum, 72 h) and 900 nM in data set [3] (setting [9]). The Selective toxicity in data set [1] is on record as 84; in data set [4] it was 19. In addition, the EC50 at 72 h in data set [2] (setting [8]) was found to be 17000 nM.

For `C=CCn1c(=Cc2oc3ccccc3[n+]2C)sc(=CC=C2Sc3ccccc3N2C)c1=O` [A-13], the EC50 was determined as 13000 nM in data set [5] (setting [10]); 13000 nM in data set [5] (Alamar Blue (Table 5), read-out: 50% growth inhibition concentration Cytotoxicity L6); 110 nM in data set [3] (setting [11]); 47 nM in data set [6].

For the compound `CCn1c(=O)/c(=C/C=C2\Sc3ccccc3N2C)s/c1=C\c1cccc[n+]1CCO` [A-5], the EC50 in data set [1] (Plasmodium falciparum, 72 h) turned out to be 270 nM. Besides, the Selective toxicity in data set [1] turned out to be 150. Further, the EC50 at 72 h in data set [2] (setting [8]) came to 42000 nM.

Take `CCn1c(=O)/c(=C/C=C2\Sc3ccccc3N2C)s/c1=C\c1cccc[n+]1CCOCCOCCOC` [A-6]: the EC50 in data set [1] (Plasmodium falciparum, 72 h) was 190 nM; in data set [3] (setting [9]) it was 130 nM. In addition, the Selective toxicity is 236 in data set [1] and 340 in data set [4]. The EC50 at 72 h in data set [2] (setting [8]) was 44000 nM.

For the compound `CCCCCCCCCCCCCCCCOP(=O)([O-])OCC[N+](C)(C)C` [miltefosine, reference compound], in data set [6] (Leishmania donovani), the EC50 was determined as 280 nM.

Regarding `CCn1c(=Cc2sc3c4ccccc4ccc3[n+]2CC)sc(=CC=C2SCCN2C)c1=O` [A-9], the EC50 was 74 nM in data set [1]; 8100 nM in data set [5] (setting [12]); 8100 nM in data set [5] (setting [10]); 140 nM in data set [3] (setting [11]); 4100 nM in data set [7]; 23 nM in data set [6].

`Nc1nc(N)nc(Nc2ccc([As]3SCC(CO)S3)cc2)n1` (centres unmarked) [melarsoprol, reference compound]: the EC50 at 72 h in data set [2] (setting [10]) amounted to 7800 nM. In addition, in data set [3] (Trypanosoma brucei, STIB900, 72 h), the EC50 turned out to be 6 nM. This compound also gave a Selective toxicity in data set [4] of 1300.

Consider `CCn1c(=Cc2oc3ccccc3[n+]2CC)sc(=CC=C2N(C)c3ccccc3C2(C)C)c1=O` [A-8], for which the EC50 amounted to 14 nM in data set [1]; 1800 nM in data set [5] (setting [12]); 1800 nM in data set [5] (setting [10]); 300 nM in data set [3] (setting [11]); 990 nM in data set [7]; 56 nM in data set [6].

On to `CCn1c(=Cc2cccc[n+]2C)sc(=CC=C2Sc3ccccc3N2C)c1=O` [A-4], for which the EC50 in data set [1] amounted to 120 nM; in data set [5] (setting [12]), 76000 nM; in data set [5] (setting [10]), 76000 nM; in data set [3] (setting [11]), 410 nM.

As for `O=C(Cn1ccnc1[N+](=O)[O-])NCc1ccccc1` [benznidazol, benznidazole, reference compound], in data set [7] (Trypanosoma cruzi), the EC50 turned out to be 870 nM.

Turning to `CCn1c(=Cc2cc[n+](CC)c3ccccc23)sc(=CC=C2C=Cc3ccccc3N2C)c1=O` [A-14], the EC50 stood at 140 nM in data set [1]; 9100 nM in data set [5] (setting [12]); 9100 nM in data set [5] (setting [10]); 41 nM in data set [3] (setting [11]); 1200 nM in data set [7]; 200 nM in data set [6].
